In brackets after ≈: the same amount, converted by molar mass. Activity calls are given as the source filed them. No cut-off for these calls is given here.
Experiments:
[1] = system: Candida albicans; test: microbe, parasite or virus in culture; assay type: functional; details: Candida albicans, 0710922, 48 h
Description: Antifungal activity against FLC resistant Candida albicans 0710922 assessed as fluconazol MIC50 after 48 hrs by checkerboard microdilution method

[2] = system: Candida albicans; test: microbe, parasite or virus in culture; assay type: functional; details: Candida albicans, 0304103, 48 h
Description: Antifungal activity against FLC resistant Candida albicans 0304103 after 48 hrs by checkerboard microdilution method

[3] = system: Candida albicans; test: microbe, parasite or virus in culture; assay type: functional; details: Candida albicans, 100, 48 h
Description: Antifungal activity against FLC resistant Candida albicans 100 assessed as fluconazol MIC50 after 48 hrs by checkerboard microdilution method

[4] = system: HL-60; test: Antiproliferative activity against human HL60 cells after 48 hrs by CCK-8 assay; assay type: functional, cell-based; details: HL-60, 48 h
[5] = Half life in ICR mouse liver microsomes at 1 uM measured up to 45 mins in presence of NADPH by LC-MS/MS analysis; assay type: ADME, microsome
[6] = molecular target: Histone deacetylase 2 (Homo sapiens, UniProt Q92769); test: Inhibition of recombinant HDAC2 (unknown origin) using (Ac-Leu-Gly-Lys(Ac)-AMC as substrate preincubated for 5 mins followed by substrate addition and measured after 30 mins by fluorescence assay
Sequence of Histone deacetylase 2 (Q92769 whole entry): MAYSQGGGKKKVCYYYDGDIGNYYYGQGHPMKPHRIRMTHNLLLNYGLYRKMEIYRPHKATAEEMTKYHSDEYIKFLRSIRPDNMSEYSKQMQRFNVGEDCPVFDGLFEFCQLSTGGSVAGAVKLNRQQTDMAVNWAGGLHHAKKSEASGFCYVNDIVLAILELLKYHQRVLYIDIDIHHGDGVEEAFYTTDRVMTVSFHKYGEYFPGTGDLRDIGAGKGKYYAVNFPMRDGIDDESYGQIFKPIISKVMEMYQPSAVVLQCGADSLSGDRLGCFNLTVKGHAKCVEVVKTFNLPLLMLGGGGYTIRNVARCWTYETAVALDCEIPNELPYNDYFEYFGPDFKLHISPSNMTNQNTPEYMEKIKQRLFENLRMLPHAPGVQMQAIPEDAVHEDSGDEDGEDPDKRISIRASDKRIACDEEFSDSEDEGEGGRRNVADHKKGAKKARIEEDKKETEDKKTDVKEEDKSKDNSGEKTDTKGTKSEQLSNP

[7] = molecular target: Histone deacetylase 1 (Homo sapiens, UniProt Q13547); test: Inhibition of full length human recombinant HDAC1 expressed in baculovirus expression system using (Ac-Leu-Gly-Lys(Ac)-AMC as substrate preincubated for 5 mins followed by substrate addition and measured after 30 mins by fluorescence assay
Sequence of Histone deacetylase 1 (Q13547 whole entry): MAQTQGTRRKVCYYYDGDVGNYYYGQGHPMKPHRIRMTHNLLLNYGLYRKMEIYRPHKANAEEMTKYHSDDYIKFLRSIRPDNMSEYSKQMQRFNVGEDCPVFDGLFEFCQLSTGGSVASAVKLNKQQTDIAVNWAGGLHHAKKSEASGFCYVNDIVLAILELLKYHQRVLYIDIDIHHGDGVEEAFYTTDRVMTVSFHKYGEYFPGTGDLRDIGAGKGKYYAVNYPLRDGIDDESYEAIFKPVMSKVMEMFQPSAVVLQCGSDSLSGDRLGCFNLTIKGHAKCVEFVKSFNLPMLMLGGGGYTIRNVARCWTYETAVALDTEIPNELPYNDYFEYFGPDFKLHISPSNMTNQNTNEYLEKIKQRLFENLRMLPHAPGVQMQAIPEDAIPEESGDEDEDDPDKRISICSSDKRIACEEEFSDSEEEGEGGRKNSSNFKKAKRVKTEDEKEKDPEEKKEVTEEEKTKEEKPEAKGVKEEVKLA

[8] = system: Mus musculus; test: In vivo antifungal activity against FLC resistant Candida albicans 0304103 infected in ICR mouse assessed as mouse survival at 5 mg/kg, ip qd up to 20 days in co-treated with 1 mg/kg, ip qd fluconazol (reference value: 4.5 day); assay type: functional
[9] = system: Mus musculus; test: Toxicity in BALB/C nude mouse xenografted with human HEL cells assessed as reduction in body weight at 10 mg/kg, ip bid treated for 21 consecutive days; assay type: organism-based; details: in vivo
[10] = system: Candida albicans; test: Antifungal activity against FLC resistant Candida albicans 0304103 at 32 ug/ml up to 24 hrs in presence of fluconazol by checkerboard microdilution method; assay type: functional, organism-based
[11] = system: HEL; test: Antiproliferative activity against human HEL cells after 48 hrs by CCK-8 assay; assay type: functional, cell-based
[12] = system: K562; test: Antiproliferative activity against human K562 cells after 48 hrs by CCK-8 assay; assay type: functional, cell-based; details: K562, 48 h
[13] = molecular target: T1, Histone deacetylase (Homo sapiens) (UniProt Q13547+O15379+Q9UBN7+Q92769+Q9UQL6+Q8WUI4+Q9BY41+Q96DB2+P56524+Q9UKV0+Q969S8); test: Inhibition of HDAC in human HEL cells assessed as increased in histone H3 acetylation after 24 hrs by Western blot analysis; assay type: cell-based
[14] = molecular target: Tyrosine-protein kinase JAK1 (Homo sapiens, UniProt P23458); test: Inhibition of JAK1 (unknown origin) using FAM-labeled peptide as substrate preincubated for 10 mins followed by substrate addition and measured after 25 mins in presence of ATP
Sequence of Tyrosine-protein kinase JAK1 (P23458 whole entry): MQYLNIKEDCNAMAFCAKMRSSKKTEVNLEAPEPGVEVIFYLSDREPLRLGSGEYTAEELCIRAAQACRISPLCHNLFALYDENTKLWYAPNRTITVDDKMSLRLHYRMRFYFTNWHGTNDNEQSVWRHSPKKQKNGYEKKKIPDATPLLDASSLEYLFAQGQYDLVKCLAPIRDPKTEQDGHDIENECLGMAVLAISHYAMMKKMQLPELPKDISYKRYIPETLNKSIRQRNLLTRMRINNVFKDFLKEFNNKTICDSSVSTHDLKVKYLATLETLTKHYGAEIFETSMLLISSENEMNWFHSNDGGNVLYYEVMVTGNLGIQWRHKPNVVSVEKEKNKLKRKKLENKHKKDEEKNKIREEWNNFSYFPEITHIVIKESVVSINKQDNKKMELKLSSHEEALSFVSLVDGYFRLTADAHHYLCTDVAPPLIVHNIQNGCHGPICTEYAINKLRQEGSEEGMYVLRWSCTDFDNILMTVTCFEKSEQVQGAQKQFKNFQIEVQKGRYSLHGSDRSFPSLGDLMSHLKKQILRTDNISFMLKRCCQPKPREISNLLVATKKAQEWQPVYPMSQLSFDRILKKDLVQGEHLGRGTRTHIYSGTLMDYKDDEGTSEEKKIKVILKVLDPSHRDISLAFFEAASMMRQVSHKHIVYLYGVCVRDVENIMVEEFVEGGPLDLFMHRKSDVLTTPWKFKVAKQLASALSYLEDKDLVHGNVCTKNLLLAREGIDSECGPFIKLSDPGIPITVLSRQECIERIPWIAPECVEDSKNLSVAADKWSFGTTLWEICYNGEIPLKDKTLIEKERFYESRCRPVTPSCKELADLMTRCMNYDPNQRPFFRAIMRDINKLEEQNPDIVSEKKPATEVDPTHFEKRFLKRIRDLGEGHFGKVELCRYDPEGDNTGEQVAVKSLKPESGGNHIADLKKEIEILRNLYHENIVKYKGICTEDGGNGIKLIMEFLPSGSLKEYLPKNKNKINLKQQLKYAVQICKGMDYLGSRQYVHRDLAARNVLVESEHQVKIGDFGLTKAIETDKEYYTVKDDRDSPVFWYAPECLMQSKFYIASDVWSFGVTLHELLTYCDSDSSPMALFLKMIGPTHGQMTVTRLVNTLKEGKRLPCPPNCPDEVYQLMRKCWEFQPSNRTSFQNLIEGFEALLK

[15] = system: HEL; test: Induction of apoptosis in human HEL cells after 48 hrs by Annexin-V-FITC/propidium iodide staining based flow cytometry; assay type: functional, cell-based
[16] = system: Candida albicans; test: microbe, parasite or virus in culture; assay type: functional; details: Candida albicans, 0710922, 48 h; remark: listed apart in the source
Description: Antifungal activity against FLC resistant Candida albicans 0710922 after 48 hrs by checkerboard microdilution method

[17] = system: Candida albicans; test: Synergistic antifungal activity against FLC resistant Candida albicans 0304103 assessed as FIC index after 48 hrs by checkerboard microdilution method; assay type: functional
[18] = molecular target: T2, Histone deacetylase 8 (Homo sapiens, UniProt Q9BY41); test: Inhibition of full length recombinant C-terminal His tagged human HDAC8 expressed in Baculovirus infected Sf9 cells using Ac-Leu-Gly-Lys(Tfa)-AMC as substrate preincubated for 5 mins followed by substrate addition and measured after 30 mins by fluorescence assay
T2 sequence (Q9BY41 whole entry): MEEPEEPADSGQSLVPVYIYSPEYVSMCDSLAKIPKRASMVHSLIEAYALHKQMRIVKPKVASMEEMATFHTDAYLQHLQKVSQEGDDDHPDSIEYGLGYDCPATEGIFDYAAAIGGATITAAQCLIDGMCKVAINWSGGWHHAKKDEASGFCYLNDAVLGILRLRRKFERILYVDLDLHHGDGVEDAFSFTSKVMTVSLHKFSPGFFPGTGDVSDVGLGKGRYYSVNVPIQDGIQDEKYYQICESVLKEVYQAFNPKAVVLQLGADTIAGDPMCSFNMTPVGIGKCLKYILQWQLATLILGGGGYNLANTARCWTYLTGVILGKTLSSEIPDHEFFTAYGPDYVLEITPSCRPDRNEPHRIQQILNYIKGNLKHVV

[19] = system: Candida albicans; test: Antifungal activity against FLC resistant Candida albicans 100 after 48 hrs by checkerboard microdilution method; assay type: functional; details: Candida albicans, 100, 48 h
[20] = system: Candida albicans; test: microbe, parasite or virus in culture; assay type: functional; details: Candida albicans, 0304103, 48 h; remark: listed apart in the source
Description: Antifungal activity against FLC resistant Candida albicans 0304103 after 48 hrs in presence of fluconazol by checkerboard microdilution method

[21] = system: Candida albicans; test: Synergistic antifungal activity against FLC resistant Candida albicans 0710922 assessed as FIC index after 48 hrs by checkerboard microdilution method; assay type: functional
[22] = system: Mus musculus; test: Toxicity in BALB/C nude mouse xenografted with human HEL cells at 10 mg/kg, ip bid treated for 21 consecutive days; assay type: organism-based; details: in vivo
[23] = molecular target: T1, Histone deacetylase (Homo sapiens); test: Inhibition of HDAC in human HEL cells assessed as increased in histone H4 acetylation after 24 hrs by Western blot analysis; assay type: cell-based
[24] = system: HEL; test: Induction of apoptosis in human HEL cells at 10 uM after 48 hrs by Annexin-V-FITC/propidium iodide staining based flow cytometry relative to control; assay type: functional
[25] = system: HEL; test: Antitumor activity in human HEL cells xenografted in SCID mouse assessed as increase in mouse survival at 10 mg/kg, ip qd measured up to 40 days; assay type: functional, organism-based
[26] = molecular target: Non-receptor tyrosine-protein kinase TYK2 (Homo sapiens, UniProt P29597); test: Inhibition of TYK2 (unknown origin) using FAM-labeled peptide as substrate preincubated for 10 mins followed by substrate addition and measured after 25 mins in presence of ATP
Sequence of Non-receptor tyrosine-protein kinase TYK2 (P29597 whole entry): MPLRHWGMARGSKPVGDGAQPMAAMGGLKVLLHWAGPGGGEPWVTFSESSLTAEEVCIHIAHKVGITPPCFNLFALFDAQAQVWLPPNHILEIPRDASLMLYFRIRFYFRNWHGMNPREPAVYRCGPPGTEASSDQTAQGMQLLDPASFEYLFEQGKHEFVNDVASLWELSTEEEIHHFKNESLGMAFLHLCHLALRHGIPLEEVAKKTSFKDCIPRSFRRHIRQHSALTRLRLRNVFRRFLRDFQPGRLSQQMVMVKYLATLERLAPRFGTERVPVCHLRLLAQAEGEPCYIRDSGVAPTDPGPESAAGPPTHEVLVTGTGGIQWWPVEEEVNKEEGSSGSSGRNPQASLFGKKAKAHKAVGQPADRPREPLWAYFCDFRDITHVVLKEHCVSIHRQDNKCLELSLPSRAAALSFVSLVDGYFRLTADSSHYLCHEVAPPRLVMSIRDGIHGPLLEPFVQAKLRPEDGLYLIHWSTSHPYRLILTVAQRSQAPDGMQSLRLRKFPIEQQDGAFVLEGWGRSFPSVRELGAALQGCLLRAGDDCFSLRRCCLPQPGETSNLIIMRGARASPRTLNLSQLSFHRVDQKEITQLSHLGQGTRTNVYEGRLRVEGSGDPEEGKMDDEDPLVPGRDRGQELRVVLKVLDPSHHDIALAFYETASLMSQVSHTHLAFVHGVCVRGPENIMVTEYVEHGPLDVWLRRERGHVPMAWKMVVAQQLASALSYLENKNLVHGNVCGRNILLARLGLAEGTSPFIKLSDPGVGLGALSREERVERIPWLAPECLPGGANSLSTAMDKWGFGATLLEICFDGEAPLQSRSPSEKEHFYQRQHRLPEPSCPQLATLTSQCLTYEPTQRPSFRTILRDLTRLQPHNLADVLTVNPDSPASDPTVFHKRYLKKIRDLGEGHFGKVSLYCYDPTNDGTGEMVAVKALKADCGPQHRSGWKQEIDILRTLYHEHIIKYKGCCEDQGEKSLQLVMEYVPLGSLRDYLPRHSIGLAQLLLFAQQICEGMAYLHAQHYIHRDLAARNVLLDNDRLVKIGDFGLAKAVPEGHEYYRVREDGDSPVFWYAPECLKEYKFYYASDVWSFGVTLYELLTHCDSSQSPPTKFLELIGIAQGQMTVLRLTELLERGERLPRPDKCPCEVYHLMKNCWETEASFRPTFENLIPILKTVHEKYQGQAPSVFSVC

Structure (SMILES)	MIC50 [1] [µg/mL]	MIC50 [2] [µg/mL]	MIC50 [3] [µg/mL]	IC50 [4] [nM]	half-life at 1 µM [5] [min]	IC50 [6] [nM]	IC50 [7] [nM]	MST [8] [days]	Activity [9]	Activity [10]	IC50 [11] [nM]	IC50 [12] [nM]	inhibition [13]	IC50 [14] [nM]	Activity [15]	MIC50 [16] [µg/mL]	fractional inhibitory concentration index (FICI) [17]	IC50 [18] [nM]	MIC50 [19] [µg/mL]	MIC50 [20] [µg/mL]	also measured
O=C(NO)c1ccc(-c2ccnc(Nc3ccc(N4CCOCC4)cc3)n2)cc1	1 (≈ 2.55 µM)	> 64	0.5 (≈ 1.28 µM)	6100	16.5	1700	160	11	Non-Toxic	Active	3500	4000	Dose-dependent effect	69	Dose-dependent effect	> 64	0.07	609	> 64	4 (≈ 10.2 µM)	fractional inhibitory concentration index (FICI) [21]: 0.27; Activity [22]: Non-Toxic; inhibition [23]: Dose-dependent effect; Activity [24]: 86.2%; Activity [25]: Active; IC50 [26]: 419 nM
CS(=O)(=O)Nc1ccc(-c2ccnc(Nc3ccc(N4CCC(C(=O)NCCCCCCCC(=O)NO)CC4)cc3)n2)cc1	0.25 (≈ 0.401 µM)	> 64	0.5 (≈ 0.802 µM)	> 50000	15.7	132	18	13	Non-Toxic	Active	1800	5900	Dose-dependent effect	76	Dose-dependent effect	> 64	0.13	572	> 64	8 (≈ 12.8 µM)	fractional inhibitory concentration index (FICI) [21]: 0.26; Activity [22]: Non-Toxic; inhibition [23]: Dose-dependent effect; Activity [24]: 89.2%; Activity [25]: Active; IC50 [26]: 74 nM
CS(=O)(=O)Nc1ccc(-c2ccnc(Nc3ccc(N4CCC(C(=O)Nc5ccc(/C=C/C(=O)NO)cc5)CC4)cc3)n2)cc1	1 (≈ 1.59 µM)	> 64	0.5 (≈ 0.797 µM)	1500	19.4	7470	250	11.5	Non-Toxic	Active	340	8700	Dose-dependent effect	359	Dose-dependent effect	> 64	0.07	6070	> 64	4 (≈ 6.37 µM)	fractional inhibitory concentration index (FICI) [21]: 0.14; Activity [22]: Non-Toxic; inhibition [23]: Dose-dependent effect; Activity [24]: 70.62%; Activity [25]: Active; IC50 [26]: 46 nM

— ChEMBL document CHEMBL4145634, “Discovery of Janus Kinase 2 (JAK2) and Histone Deacetylase (HDAC) Dual Inhibitors as a Novel Strategy for the Combinational Treatment of Leukemia and Invasive Fungal Infections” (J Med Chem, 2018)
